≈ marks a conversion by molar mass, not a printed value.
What was measured:
Experiment in all cases: MIC, broth microdilution
[1] = test system: E. coli GC 2233; conditions: Escherichia coli, GC2233, E. coli GC 2233
[2] = test system: E. coli GC 2270; conditions: Escherichia coli, GC2270, E. coli GC 2270
[3] = test system: E. coli GC 2271; conditions: Escherichia coli, GC2271, E. coli GC 2271
[4] = test system: E. coli GC 2272; conditions: Escherichia coli, GC2272, E. coli GC 2272
[5] = test system: E. coli GC 4560; conditions: Escherichia coli, GC4560, E. coli GC 4560
[6] = test system: E. coli GC 6465; conditions: Escherichia coli, GC6465, E. coli GC 6465
[7] = test system: E. coli GC 3226; conditions: Escherichia coli, GC3226, E. coli GC 3226
[8] = test system: E. coli GC 2203; conditions: Escherichia coli, GC2203, E. coli GC 2203
[9] = test system: E. coli GC 1073; conditions: Escherichia coli, GC1073, E. coli GC 1073
[10] = test system: P. aeruginosa GC 2214; conditions: Pseudomonas aeruginosa, GC2214, P. aeruginosa GC 2214
[11] = test system: S. aureus GC 1131; conditions: Staphylococcus aureus, GC1131, S. aureus GC 1131
[12] = test system: S. aureus GC 6467; conditions: Staphylococcus aureus, GC6467, S. aureus GC 6467
[13] = test system: S. aureus GC 1079; conditions: Staphylococcus aureus, GC1079, S. aureus GC 1079
[14] = test system: S. aureus GC 6335; conditions: Staphylococcus aureus, GC6335, S. aureus GC 6335
[15] = test system: S. aureus GC 6469; conditions: Staphylococcus aureus, GC6469, S. aureus GC 6469
[16] = test system: S. epidermidis GC 4935; conditions: Staphylococcus epidermidis, GC4935, S. epidermidis GC 4935
[17] = test system: E. faecalis GC 2265; conditions: Enterococcus faecalis, GC2265, E. faecalis GC 2265
[18] = test system: E. faecalis GC 2267; conditions: Enterococcus faecalis, GC2267, E. faecalis GC 2267
[19] = test system: E. faecium GC 2243; conditions: Enterococcus faecium, GC2243, E. faecium GC 2243
[20] = test system: c. albicans GC 3066
[21] = c. albicans GC 3066, Water pre-incubation

SMILES	MIC ([1]; Mouse Serum pre-incubation)	MIC ([1]; Water pre-incubation)	MIC ([2]; Mouse Serum pre-incubation)	MIC ([2]; Water pre-incubation)	MIC ([3]; Mouse Serum pre-incubation)	MIC ([3]; Water pre-incubation)	MIC ([4]; Mouse Serum pre-incubation)	MIC ([4]; Water pre-incubation)	MIC ([5]; Mouse Serum pre-incubation)	MIC ([5]; Water pre-incubation)	MIC ([6]; Mouse Serum pre-incubation)	MIC ([6]; Water pre-incubation)	MIC ([7]; Mouse Serum pre-incubation)	MIC ([7]; Water pre-incubation)	MIC ([8]; Mouse Serum pre-incubation)	MIC ([8]; Water pre-incubation)	MIC ([9]; Mouse Serum pre-incubation)	MIC ([9]; Water pre-incubation)	MIC ([10]; Mouse Serum pre-incubation)	MIC ([10]; Water pre-incubation)	further results
CCCN(CC(=O)Nc1cc(N(C)C)c2c(c1O)C(=O)C1=C(O)[C@]3(O)C(=O)C(C(N)=O)=C(O)[C@@H](N(C)C)[C@@H]3C[C@@H]1C2)C(=O)OCOC(=O)c1ccc(F)cc1 [Example 8, ({[(2-{[(5aR,6aS,7S,10aS)-9-(aminocarbonyl)-4,7-bis(dimethylamino)-1,8,10a,11-tetrahydroxy-10,12-dioxo-5,5a,6,6a,7,10,10a,12-octahydrotetracen-2-yl]amino}-2-oxoethyl)(propyl)amino]carbonyl}oxy)methyl 4-fluorobenzoate]	1 µg/mL (≈ 1.3 µM)	32 µg/mL (≈ 41.7 µM)	1 µg/mL (≈ 1.3 µM)	64 µg/mL (≈ 83.4 µM)	1 µg/mL (≈ 1.3 µM)	32 µg/mL (≈ 41.7 µM)	1 µg/mL (≈ 1.3 µM)	32 µg/mL (≈ 41.7 µM)	0.5 µg/mL (≈ 0.651 µM)	4 µg/mL (≈ 5.21 µM)	8 µg/mL (≈ 10.4 µM)	> 64 µg/mL	2 µg/mL (≈ 2.6 µM)	64 µg/mL (≈ 83.4 µM)	1 µg/mL (≈ 1.3 µM)	32 µg/mL (≈ 41.7 µM)	1 µg/mL (≈ 1.3 µM)	32 µg/mL (≈ 41.7 µM)	32 µg/mL (≈ 41.7 µM)	> 64 µg/mL	MIC ([11]; Mouse Serum pre-incubation): 1 µg/mL (≈ 1.3 µM); MIC ([11]; Water pre-incubation): 2 µg/mL (≈ 2.6 µM); MIC ([12]; Mouse Serum pre-incubation): 4 µg/mL (≈ 5.21 µM); MIC ([12]; Water pre-incubation): 8 µg/mL (≈ 10.4 µM); MIC ([13]; Mouse Serum pre-incubation): 2 µg/mL (≈ 2.6 µM); MIC ([13]; Water pre-incubation): 4 µg/mL (≈ 5.21 µM); MIC ([14]; Mouse Serum pre-incubation): 1 µg/mL (≈ 1.3 µM); MIC ([14]; Water pre-incubation): 4 µg/mL (≈ 5.21 µM); MIC ([15]; Mouse Serum pre-incubation): 2 µg/mL (≈ 2.6 µM); MIC ([15]; Water pre-incubation): 8 µg/mL (≈ 10.4 µM); MIC ([16]; Mouse Serum pre-incubation): 2 µg/mL (≈ 2.6 µM); MIC ([16]; Water pre-incubation): 8 µg/mL (≈ 10.4 µM); MIC ([17]; Mouse Serum pre-incubation): 2 µg/mL (≈ 2.6 µM); MIC ([17]; Water pre-incubation): 8 µg/mL (≈ 10.4 µM); MIC ([18]; Mouse Serum pre-incubation): 2 µg/mL (≈ 2.6 µM); MIC ([18]; Water pre-incubation): 8 µg/mL (≈ 10.4 µM); MIC ([19]; Mouse Serum pre-incubation): 0.25 µg/mL (≈ 0.326 µM); MIC ([19]; Water pre-incubation): 2 µg/mL (≈ 2.6 µM); MIC ([20]; Candida albicans, GC3066): > 64 µg/mL; MIC [20, 21]: >64 UG/ML
CCCN(CC(=O)Nc1cc(N(C)C)c2c(c1O)C(=O)C1=C(O)[C@]3(O)C(=O)C(C(N)=O)=C(O)[C@@H](N(C)C)[C@@H]3C[C@@H]1C2)C(=O)OCOC(=O)C(C)C [Example 10, ({[(2-{[(5aR,6aS,7S,10aS)-9-(aminocarbonyl)-4,7-bis(dimethylamino)-1,8,10a,11-tetrahydroxy-10,12-dioxo-5,5a,6,6a,7,10,10a,12-octahydrotetracen-2-yl]amino}-2-oxoethyl)(propyl)amino]carbonyl}oxy)methyl 2-methylpropanoate]	0.5 µg/mL (≈ 0.699 µM)	8 µg/mL (≈ 11.2 µM)	0.5 µg/mL (≈ 0.699 µM)	8 µg/mL (≈ 11.2 µM)	0.25 µg/mL (≈ 0.349 µM)	8 µg/mL (≈ 11.2 µM)	0.5 µg/mL (≈ 0.699 µM)	8 µg/mL (≈ 11.2 µM)	0.12 µg/mL (≈ 0.168 µM)	0.12 µg/mL (≈ 0.168 µM)	8 µg/mL (≈ 11.2 µM)	> 64 µg/mL	0.5 µg/mL (≈ 0.699 µM)	16 µg/mL (≈ 22.4 µM)	0.5 µg/mL (≈ 0.699 µM)	8 µg/mL (≈ 11.2 µM)	0.5 µg/mL (≈ 0.699 µM)	16 µg/mL (≈ 22.4 µM)	16 µg/mL (≈ 22.4 µM)	> 64 µg/mL	MIC ([11]; Mouse Serum pre-incubation): 0.12 µg/mL (≈ 0.168 µM); MIC ([11]; Water pre-incubation): 0.12 µg/mL (≈ 0.168 µM); MIC ([12]; Mouse Serum pre-incubation): 2 µg/mL (≈ 2.79 µM); MIC ([12]; Water pre-incubation): 2 µg/mL (≈ 2.79 µM); MIC ([13]; Mouse Serum pre-incubation): 0.5 µg/mL (≈ 0.699 µM); MIC ([13]; Water pre-incubation): 1 µg/mL (≈ 1.4 µM); MIC ([14]; Mouse Serum pre-incubation): 0.25 µg/mL (≈ 0.349 µM); MIC ([14]; Water pre-incubation): 0.5 µg/mL (≈ 0.699 µM); MIC ([15]; Mouse Serum pre-incubation): 1 µg/mL (≈ 1.4 µM); MIC ([15]; Water pre-incubation): 2 µg/mL (≈ 2.79 µM); MIC ([16]; Mouse Serum pre-incubation): 0.5 µg/mL (≈ 0.699 µM); MIC ([16]; Water pre-incubation): 1 µg/mL (≈ 1.4 µM); MIC ([17]; Mouse Serum pre-incubation): 1 µg/mL (≈ 1.4 µM); MIC ([17]; Water pre-incubation): 1 µg/mL (≈ 1.4 µM); MIC ([18]; Mouse Serum pre-incubation): 1 µg/mL (≈ 1.4 µM); MIC ([18]; Water pre-incubation): 2 µg/mL (≈ 2.79 µM); MIC ([19]; Mouse Serum pre-incubation): < 0.06 µg/mL; MIC ([19]; Water pre-incubation): 0.12 µg/mL (≈ 0.168 µM); MIC ([20]; Candida albicans, GC3066): > 64 µg/mL; MIC [20, 21]: >64 UG/ML

From patent publication US20070049564A1 (Wyeth, priority 2005, published 2007)
